# Laboratory results from PubChem BioAssay (NCI).
#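 Dose response: 5 concentrations. Exposure: 48 h. Format: 96-well plates. Endpoint: linear interpolation; highest concentration if not reached. GI50 is the concentration that inhibits growth by half. TGI is the concentration that stops growth completely.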
# Columns and labels:
# Assay in all cases: NCI-60 cell line screen, 48 h
# ACHN renal = tested on: ACHN renal
# EKVX NSCLC = tested on: EKVX NSCLC
# A549 NSCLC = tested on: A549 NSCLC
# OVCAR-4 ovarian = tested on: OVCAR-4 ovarian
# HOP-92 NSCLC = tested on: HOP-92 NSCLC
# SNB-19 CNS = tested on: SNB-19 CNS
# SK-MEL-2 melanoma = tested on: SK-MEL-2 melanoma
# SK-MEL-5 melanoma = tested on: SK-MEL-5 melanoma
# SF-295 CNS = tested on: SF-295 CNS
# HCC-2998 colon = tested on: HCC-2998 colon
Compound,TGI (ACHN renal) [µM],TGI (EKVX NSCLC) [µM],TGI (A549 NSCLC) [µM],TGI (OVCAR-4 ovarian) [µM],TGI (HOP-92 NSCLC) [µM],TGI (SNB-19 CNS) [µM],TGI (SK-MEL-2 melanoma) [µM],TGI (SK-MEL-5 melanoma) [µM],TGI (SF-295 CNS) [µM],TGI (HCC-2998 colon) [µM],GI50 (ACHN renal) [µM],GI50 (EKVX NSCLC) [µM],GI50 (A549 NSCLC) [µM],GI50 (OVCAR-4 ovarian) [µM],GI50 (HOP-92 NSCLC) [µM],GI50 (SNB-19 CNS) [µM],GI50 (SK-MEL-2 melanoma) [µM],GI50 (SK-MEL-5 melanoma) [µM],GI50 (SF-295 CNS) [µM],GI50 (HCC-2998 colon) [µM]
CC(=O)OCC1OC(n2c(=O)n(-c3ccccc3)c(=O)c3cc(Br)cc(Br)c32)C(OC(C)=O)C(OC(C)=O)C1OC(C)=O (stereo unspecified),> 100,> 100,> 100,61.5,> 100,> 100,> 100,> 100,> 100,> 100,,,,,,,,,,
COc1ccc2[nH]c(=O)c(/C=C/C(=O)/C=C/c3ccc(O)c(OC)c3)cc2c1,3.13,4.35,6.35,29.4,5.06,3.92,6.24,3.27,7.36,3.64,1.68,1.95,2.24,2.91,1.84,1.67,2.47,1.77,2.36,1.97
c1ccc(-c2nnc(Nc3ccc4c(c3)OCCO4)o2)c(NCc2ccncc2)c1,14.4,> 100,15.4,21.9,6.87,> 100,22.3,0.153,> 100,1.35,0.0784,0.105,0.0388,0.0818,0.286,0.0536,0.16,0.0257,0.0136,0.0296
COc1c(NC(=O)CC(C)=O)[c]([Hg][O]C(C)=O)c(OC)c(Cl)[c]1[Hg][O]C(C)=O,25.6,41.4,47,35.7,11.6,32.3,27.6,25,31.8,34.3,13,22.3,21.9,14.5,4.13,18,14.4,12.5,17,18.8
CCCCCCCCCCCC[n+]1ccccc1,14.2,9.17,5.16,14.5,3.1,2.94,3.73,2.26,4.1,5.29,2.09,0.936,2.02,0.515,0.958,1.3,1.44,1.06,1.39,1.37
C#C[C@@]1(O)[C@@H](CO)O[C@@H](n2ccc3c(N)ncnc32)[C@@H]1O,4.48,5.43,> 100,7.79,5.56,6.61,6.32,2.96,5.33,3.12,0.56,1.52,1.31,1.97,2.04,1.62,1.37,1.56,1.73,1.45
CN(C)CCNC(=O)Cn1ccc(=O)c2ccc([N+](=O)[O-])cc21,> 100,> 100,> 100,> 100,> 100,> 100,> 100,> 100,> 100,> 100,,,,,,,,,,
COc1cc(C(=O)C/C(CCC(=O)Nc2ccc(Cl)cc2Cl)=N/NC(=O)C(N)=O)ccc1O,> 100,> 100,> 100,> 100,> 100,> 100,> 100,> 100,> 100,> 100,,,,,,,,,,
Nc1ccn(C2CC(O)C(CO)O2)c(=O)n1 (stereo unspecified),> 5000,> 5000,> 5000,> 5000,> 5000,> 5000,> 5000,> 5000,> 5000,> 5000,> 5000,> 5000,> 5000,> 5000,> 5000,> 5000,> 5000,> 5000,> 5000,> 5000
COc1cc2c(c(OC)c1OC)-c1ccc(SC)c(=O)cc1[C@@H](NCc1cccc(C#N)c1)CC2,> 75,> 75,> 75,> 75,> 75,> 75,< 0.0075,0.0641,,0.0515,0.0134,< 0.0075,< 0.0075,,< 0.0075,< 0.0075,< 0.0075,,< 0.0075,
